Values quoted from earlier work, collected in patent US7994218B2, “Simple pantoic acid ester neopentyl sulfonyl ester cyclization release prodrugs of acamprosate, compositions thereof, and methods of use” (XenoPort, Inc., priority 2007, dated 2011).

Key:
[1] = acamprosate doses about 1-2 gm per day
cocaine conditioned mice = conditions: 100 mg/kg acamprosate for 3 days

For CC(=O)NCCCS(=O)(=O)O [acamprosate, 3-(Acetylamino)propylsulfonic acid], the “time at which steady-state plasma concentration occurs post-dose” value [1] is listed as 3 to 8 h and the “effect on relapse-like behavior” value (cocaine conditioned mice) is listed as “attenuated relapse-like behavior”.
